The text below walks through data of ChEMBL document CHEMBL1135093, “Phthalazine PDE4 inhibitors. Part 3: the synthesis and in vitro evaluation of derivatives with a hydrogen bond acceptor” (Bioorg Med Chem Lett, 2002).

By Ki is commonly meant a dissociation constant, usually derived from enzyme kinetics or from competition with a known ligand. In general, IC50 refers to the concentration at which inhibition is half-maximal. The low end stands for inhibition by little substance, the high end for a need for much substance. The term inhibition denotes the relative decrease from the control value, in per cent.

Type in all cases: protein assay
Assay [1] concerns the target T1, Phosphodiesterase 4 (Homo sapiens, UniProt P27815+Q08499+Q07343+Q08493). Kind of assay: Selectivity for rolipram binding site over phosphodiesterase 4.
Assay [2] deals with T1, Phosphodiesterase 4. Description: Affinity for rolipram binding site (RBS) of human neutrophil phosphodiesterase type IV (PDE4).
In assay [3] the target is T1, Phosphodiesterase 4. Description: Inhibition of human neutrophil phosphodiesterase type IV (PDE4).
Assay [4] concerns the target T1, Phosphodiesterase 4. Description: Inhibition of human phosphodiesterase type IV (PDE4) at 10e-7 M.
Assay [5] has as its target T1, Phosphodiesterase 4. Description: Inhibition of rolipram binding to phosphodiesterase type IV (PDE4) at 10e-7 M.
Assay [6] has as its target T1, Phosphodiesterase 4. Description: Inhibition of rolipram binding to phosphodiesterase type IV (PDE4).
Assay [7] addresses T1, Phosphodiesterase 4. Kind of assay: Inhibition of rolipram binding to phosphodiesterase type IV (PDE4) at 10e-6 M.

`COC(=O)N1Cc2cc(OC)ccc2C(Cc2c(Cl)cncc2Cl)=N1`: the Ratio in assay [1] came to 2.8. The same molecule registered a Ki in assay [2] of 199 nM. The molecule further returned an IC50 in assay [3] of 72 nM.

Turning to `COc1ccc2c(c1)CN(C(N)=O)N=C2Cc1c(Cl)cncc1Cl`, the Ratio in assay [1] came out at 1.7. This molecule came in with an inhibitory constant (Ki) in assay [2] of 63 nM. In addition, the IC50 in assay [3] was found to be 36 nM.

The molecule `COc1ccc2c(c1)CN(C(=O)N(C)C)N=C2Cc1c(Cl)cncc1Cl` registered a Ki in assay [2] of 473 nM. The molecule also showed an inhibition in assay [4] of 35%.

For `COc1ccc2c(c1)CN(S(C)(=O)=O)N=C2Cc1c(Cl)cncc1Cl`, in assay [1], the Ratio was 2.9. The molecule also gave a Ki in assay [2] of 60 nM. The molecule also registered a 50% inhibitory concentration (IC50) in assay [3] of 21 nM.

On to `COc1ccc2c(c1OC1CCCC1)CN(C(C)=O)N=C2Cc1c(Cl)cncc1Cl`, for which the Ratio in assay [1] was determined as 4.3. In assay [2], this molecule had a Ki of 128 nM. In assay [3], this molecule gave an IC50 of 30 nM.

`COc1ccc2c(c1)CN(C(=O)Cc1ccccc1)N=C2Cc1c(Cl)cncc1Cl`: the Ratio in assay [1] is over 20. In assay [5], this molecule registered a Binding of 36%. The molecule also came in with a half-maximal inhibitory concentration (IC50) in assay [3] of 12 nM.

With `CCOC(=O)C(=O)N1Cc2cc(OC)ccc2C(Cc2c(Cl)cncc2Cl)=N1`, the Ratio in assay [1] worked out at 1.9. Besides, the Ki in assay [2] was 212 nM. In assay [3], this molecule displayed a half-inhibitory concentration (IC50) of 113 nM.

Molecule `COc1ccc2c(Cc3c(Cl)cncc3Cl)nncc2c1` returned a Binding in assay [6] of 42%. Besides, the inhibition in assay [4] came to 0%.

In assay [7], `COc1ccc2c(c1)CNN=C2Cc1c(Cl)cncc1Cl` yielded a Binding of 13%. Moreover, in assay [4], the inhibition is 14%.

As for `COc1ccc2c(c1OC1CCCC1)CN(S(C)(=O)=O)N=C2Cc1c(Cl)cncc1Cl`, the Ratio in assay [1] was determined as 2.5. Moreover, in assay [2], the Ki amounted to 5 nM. Also, the IC50 in assay [3] amounted to 2 nM.

Turning to `COc1ccc2c(c1)CN(C(=O)c1ccccc1)N=C2Cc1c(Cl)cncc1Cl`, the Ratio in assay [1] is over 20. In addition, the Binding in assay [5] is 17%. The molecule also gave an IC50 in assay [3] of 30 nM.

Molecule `COc1ccc2c(c1)CN(C=O)N=C2Cc1c(Cl)cncc1Cl` gave an inhibition constant Ki in assay [2] of 138 nM. The inhibition in assay [4] came out at 45%.

Turning to `COc1ccc2c(c1)CN(C(=O)C(C)C)N=C2Cc1c(Cl)cncc1Cl`, the Ratio in assay [1] amounted to 19.9. Further, the Ki in assay [2] is on record as 498 nM. Further, the concentration for half-maximal inhibition (IC50) in assay [3] was 25 nM.

As for `CCC(=O)N1Cc2cc(OC)ccc2C(Cc2c(Cl)cncc2Cl)=N1`, in assay [1], the Ratio was determined as 8.5. The molecule further gave a Ki in assay [2] of 237 nM. The molecule further had a 50% inhibitory concentration (IC50) in assay [3] of 28 nM.

Turning to `COc1ccc2c(Cc3c(Cl)cncc3Cl)nncc2c1OC1CCCC1`, the Ratio in assay [1] was determined as 2.8.

Consider `COc1ccc2c(c1)CN(C(C)=O)N=C2Cc1c(Cl)cncc1Cl`, for which the Ratio in assay [1] was 7.8. The Ki in assay [2] was determined as 397 nM. The molecule also gave an IC50 in assay [3] of 51 nM.

As for `COc1ccc2c(c1)CN(C(=O)NO)N=C2Cc1c(Cl)cncc1Cl`, the Ratio in assay [1] worked out at 2.4. The Ki in assay [2] came to 208 nM. Further, the 50% inhibitory concentration (IC50) in assay [3] is on record as 85 nM.

On to `CNC(=O)N1Cc2cc(OC)ccc2C(Cc2c(Cl)cncc2Cl)=N1`, for which the Ratio in assay [1] is 1.8. Further, the inhibition constant Ki in assay [2] amounted to 235 nM. Also, in assay [3], the IC50 is reported as 131 nM.
